Article PMC5617480 (Oncotarget, 2017)

Assays:
[1] = tested on: HTG21 (DNA, G4) GGGTTAGGGTTAGGGTTAGGG; experiment: fluorescent intercalator displacement (FID); conditions: thiazole orange displaced
Hep-G2 cells = tested on: Hep-G2 cells; design: method as in earlier work; conditions: Hep-G2, 48 h; ref [1]; cited from earlier work
[2] = tested on: HTG21 / G4-HTG21 human telomeric DNA; experiment: CD spectroscopy; type: binding; design: key to Extent of change at 290―295 nm (%): “—”represents no obvious changes in the peaks; conditions: DNA 10 μM, compound 20 μM
Experimental: We asked whether chiral platinum(II) complexes 4–6 have the ability to bind to G-quadruplex DNA. To address this, FRET assays, CD spectroscopy, G4-FID assays, and fluorescence titration analysis were performed. […] For G4-HTG21, the ^G4DC50 values of complexes 4–6 were 1.23, 1.26 and 0.99 μM, respectively; while, for G4-Pu27, the ^G4DC50 values were 1.01, 0.89, and 0.82 μM, respectively. In addition, the ^ctDNADC50/^G4DC50 ratio of the HTG21 and Pu27 G4s treated with complexes 4–6 was in the range of 50.54-90.65 and 71.56-110.67 folds, respectively. To further evaluate the binding ability of complexes 4–6 to Pu27 and HTG21G4s, CD spectroscopy and fluorescence titration analysis were performed. […] The quenching ability of complexes 4–6 to HTG21 and Pu27 G4 DNA fluorescence can be quantitatively estimated by their respective quenching constant (Kq), which was derived from the Stern-Volmer quenching equation. […] Finally, the selective binding of complexes 4–6 towards G4 DNA was analyzed by FRET-melting assays. […] In contrast, the ΔTm value for the F32T+H20M duplex DNA in the presence of complexes 4–6 was 1.18, 1.34, and 0.78 °C under the same conditions (Figure 4A). Altogether, our data indicated complexes 4–6, especially complex 6, is the best binder to G4 DNA, which caused DNA complex displaying the highest thermodynamic stability. […]
Supplementary Figure 21: CD spectra of Human Telomeric DNA (10 μM) in the absence of K+ (10 mM pH 7.35 Tris-
HCl) upon addition of compounds (20 μM). […]
Supplementary Figure 22: CD spectra of Human Telomeric G-quadruplex DNA (10 μM) in the presence of K + (TBS
buffer, containing 1% DMSO, 100 mM KCl, and 10 mM pH 7.35 Tris-HCl) upon addition of compounds (20 μM). […]

BEL-7404 cells = experiment: Apoptosis analysis (annexin V-FITC/PI flow cytometry); type: cell-based, human; conditions: BEL-7404, 10 μM, 24 h; untreated 6.1%
Experimental: Platinum(II)-based drugs were widely used in anticancer chemotherapies, therefore, we performed experiments to test the potency of chiral platinum(II) complexes 4–6 for inducing senescence and apoptosis in BEL-7404 cells. […] We next investigated the effect of complexes 4–6 on the induction of apoptosis. BEL-7404 cells were incubated with complexes 4 (10 and 20 μM), 5 (10 and 20 μM) and 6 (5, 10 and 20 μM) for 24 h, respectively, and then these cells staining with PI and Annexin-V-FITC were determined by flow cytometry (Figure 3A and Supplementary Figure 18). As shown in Figure 3A and Supplementary Figure 18, after treated of complexes 4–6 with 10 μM for 24 h, the percentage of apoptotic cells (including early-stage and late-stage, Q2+Q4) was 13.1%, 7.0% and 25.4%, respectively, whereas the normal cells was only 6.1%. We further investigated the ability of complexes 4–6 (5, 10 and 20 μM) to induce BEL-7404 cell cycle arrest (Figure 3B and Supplementary Figure 19). Cells were treated with complexes 4–6 at 10 μM for 48 h, the cell cycle arrest was determined by using flow cytometry. […]
Apoptosis analysis c-myc antibody, or anti-β-actin primary antibody and the Apoptosis was detected by flow cytometric analysis corresponding secondary antibody were used to detect of annexin V staining. […] Then, cells were incubated with annexin V-FITC and PI for 1.0 h at Staining for SA-β-Gal activity was carried out room temperature in the dark and immediately analyzed according to Moore and Chen reports. […] The data are presented as biparametric After the long-term incubation with complexes 4–6, the dot plots showing PI red fluorescence vs annexin V-FITC growth medium was aspirated and the BEL-7404 cells green fluorescence. were fixed in 2% formaldehyde/0.2% glutaraldehyde for 15.0 min at room temperature. […] Finally, the extraction, RT-PCR, and the selective binding to G4s by BEL-7404 cell cycle was determined with FACS Calibur complexes 4–6 was according to the our previous reported flow cytometer (BD) and analyzed using Cell Quest. […]

c-kit-1 = experiment: FID assay; type: binding; conditions: for c-kit-1DC50: FID; for ctDNADC50/c-kit-1DC50: FID selectivity ratio
[3] = G4-HTG21 (presence of K+), given with ↓
[4] = HTG21 (absence of K+), given with ↓

O=C(NCC(O)CO)c1cnc2c3c(cccc13)-c1ccccc1C2=O.[Cl-].[Cl-].[Pt+2] (racemic) [ligand 1, R/S-(±)-FOA]
G4DC50 [1]: 1.23 µM
IC50 (Hep-G2 cells): 32.9 ± 0.5 µM

O=C(NC[C@@H](O)CO)c1cnc2c3c(cccc13)-c1ccccc1C2=O.[Cl-].[Cl-].[Pt+2] [ligand 2, R-(+)-FOA]
G4DC50 [1]: 1.26 µM
IC50 (Hep-G2 cells): 38.9 ± 1.3 µM

O=C(NC[C@H](O)CO)c1cnc2c3c(cccc13)-c1ccccc1C2=O.[Cl-].[Cl-].[Pt+2] [ligand 3, S-(–)-FOA]
G4DC50 [1]: 0.99 µM
IC50 (Hep-G2 cells): 24.9 ± 0.4 µM

cis-[PtCl2(R-(+)-FOA)] [complex 5]
Extent of change at 250―265 nm (%) [2, 3]: 52.31%
Extent of change at 290―295 nm (%) [2, 3]: 9.76%
Extent of change at 290―295 nm (%) ([2]; HTG21 (absence of K+)): —
Extent of change at 250―265 nm (%) [2, 4]: 62.38%
percentage of apoptotic cells (early-stage and late-stage, Q2+Q4) (BEL-7404 cells): 7.0%
c-kit-1DC50 (c-kit-1): 23.89 µM
ctDNADC50/c-kit-1DC50 (c-kit-1): 2.67

cis-[PtCl2(R/S-(±)-FOA)] [complex 4]
Extent of change at 250―265 nm (%) [2, 3]: 50.08%
Extent of change at 290―295 nm (%) [2, 3]: 16.44%
Extent of change at 290―295 nm (%) ([2]; HTG21 (absence of K+)): —
Extent of change at 250―265 nm (%) [2, 4]: 73.35%
percentage of apoptotic cells (early-stage and late-stage, Q2+Q4) (BEL-7404 cells): 13.1%
c-kit-1DC50 (c-kit-1): 1.45 µM
ctDNADC50/c-kit-1DC50 (c-kit-1): 52.32

cis-[PtCl2(S-(–)-FOA)] [complex 6]
Extent of change at 250―265 nm (%) [2, 3]: 56.31%
Extent of change at 290―295 nm (%) [2, 3]: 19.43%
Extent of change at 290―295 nm (%) ([2]; HTG21 (absence of K+)): —
Extent of change at 250―265 nm (%) [2, 4]: 73.98%
percentage of apoptotic cells (early-stage and late-stage, Q2+Q4) (BEL-7404 cells): 25.4%
c-kit-1DC50 (c-kit-1): 1.75 µM
ctDNADC50/c-kit-1DC50 (c-kit-1): 51.85
